Laboratory results: ChEMBL document CHEMBL1201862, “PubChem BioAssay data set” (2004)
Calls of active or inactive are those of the source. For most assays here, no stated cut-off is given here; in the data, actives have a measured EC50 and inactives only a lower limit.

Experiments:
[1] = molecular target: T1, Calpain-2 catalytic subunit (Sus scrofa, UniProt P43367); assay: m-calpain protease blockers, concentration series – biochemical, fluorogenic peptide substrate, dose response (AID 1420); assay type: functional
T1 sequence (P43367 whole entry): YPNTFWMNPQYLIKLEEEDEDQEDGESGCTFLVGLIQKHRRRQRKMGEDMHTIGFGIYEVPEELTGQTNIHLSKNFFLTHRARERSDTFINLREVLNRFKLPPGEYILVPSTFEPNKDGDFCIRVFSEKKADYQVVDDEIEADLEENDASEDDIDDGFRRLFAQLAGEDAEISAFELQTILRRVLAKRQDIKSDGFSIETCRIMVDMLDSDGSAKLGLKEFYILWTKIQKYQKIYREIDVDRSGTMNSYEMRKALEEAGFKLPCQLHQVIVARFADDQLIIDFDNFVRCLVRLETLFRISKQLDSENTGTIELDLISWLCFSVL

[2] = tested on: Streptococcus sp. 'group A'; assay: Streptococcus pyogenes SK(-)GAS viability under kanamycin – luminescence, BacTiterGlo, confirmation, counter-screen for streptokinase expression inhibitor project, dose response (AID 1900); assay type: functional, organism-based
[3] = NIH-3T3 fibroblast cytotoxicity, dose response, cytotoxicity control, cell-based, fluorescence, Alamar Blue, secondary assay (AID 2327); assay type: functional;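 further: NIH-3T3 mouse fibroblasts cultured with fluconazole at 8 µg/mL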
[4] = fluconazole-exposed Candida albicans growth modulators – fluorescence, retest, confirmation (AID 2467); assay type: functional, cell-based
[5] = tested on: Streptococcus; assay: GAS UMAA2166 growth inhibition – luminescence, BacTiterGlo, counter-screen for streptokinase expression inhibitor project, dose response (AID 1915); assay type: functional, organism-based;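 further: potency for reduction of bacterial viability or growth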
[6] = molecular target: Luciferin 4-monooxygenase (Photinus pyralis, UniProt P08659); assay: inhibition of purified Photinus pyralis luciferase – biochemical, luminescence, dose response (AID 1891)
[7] = Luminescence Cell-Based Dose Confirmation HTS to Identify Inhibitors of Platelet Dense Granule Release. [Related pubchem assays: 1663 (Primary HTS), 1678 (Summary of Project)]; assay type: functional
[8] = Luminescence Cell-Based Dose Confirmation HTS to Identify Activators of 5'UTR Stem-Loop Driven Alpha-Synuclein mRNA Translation in H4 Neuroglioblastoma Cells. [Related pubchem assays: 1829 (Project Summary), 1814 (Primary HTS)]; assay type: functional
[9] = Luminescence Cell-Based Dose Response HTS to Identify Activators of Luciferase Translation or Activity in H4 […] Cells. [Related pubchem assays: 1829 (Project Summary), 1814 (Primary HTS)]; assay type: functional
[10] = tested on: H4; assay: Luminescence Cell-Based Dose Response HTS to Identify Activators of 5'UTR Stem-Loop Driven Prion Protein mRNA Translation in H4 Neuroglioblastoma Cells. [Related pubchem assays: 1829 (Project Summary), 1814 (Primary HTS)]; assay type: functional; conditions: Homo sapiens
[11] = tested on: INS1; assay: INS-1E survival protection against cytokine death – cell-based, luminescence, retest, dose response (AID 449756); assay type: functional; conditions: Rattus norvegicus;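 further: cell death triggered by IL-1 beta plus TNF-alpha plus IFN-gamma mixture; protective hits raise ATP signal compared with cytokine alone wells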
[12] = DRD fibroblast viability loss – cell-based, non-viral oncogenic, luminescence, dose response (AID 1934); assay type: functional; conditions: Homo sapiens
[13] = molecular target: T2, Streptokinase A (Streptococcus pyogenes serotype M1, UniProt P10520); assay: viability-normalized secreted streptokinase activity reduction – plasminogen activation absorbance, OD405, dose response (AID 1914); assay type: functional, Streptococcus pyogenes M1 GAS;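 further: secreted streptokinase activity via plasminogen activation per viability signal from cell pellet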
T2 sequence (P10520 whole entry): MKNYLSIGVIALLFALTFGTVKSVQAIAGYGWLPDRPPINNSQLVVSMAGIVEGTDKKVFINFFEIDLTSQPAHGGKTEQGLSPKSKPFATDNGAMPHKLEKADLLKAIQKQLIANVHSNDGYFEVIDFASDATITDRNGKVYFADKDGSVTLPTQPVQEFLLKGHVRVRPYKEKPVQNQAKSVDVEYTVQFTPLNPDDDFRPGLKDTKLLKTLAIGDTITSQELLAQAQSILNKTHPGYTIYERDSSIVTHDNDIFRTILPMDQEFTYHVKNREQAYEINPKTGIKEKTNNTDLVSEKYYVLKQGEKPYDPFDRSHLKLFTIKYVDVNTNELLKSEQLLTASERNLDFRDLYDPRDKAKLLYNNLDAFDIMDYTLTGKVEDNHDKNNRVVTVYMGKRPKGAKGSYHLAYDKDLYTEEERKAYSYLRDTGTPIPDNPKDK

[14] = tested on: BJ; assay: BJ-TERT-LT-ST fibroblast viability loss – cell-based, RAS-independent, luminescence, dose response (AID 1935); assay type: functional; conditions: Homo sapiens;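 further: BJ fibroblasts immortalized with TERT plus LT and ST oncogenes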
[15] = tested on: BJ; assay: BJ-TERT fibroblast viability loss – cell-based, RAS-independent, luminescence, dose response (AID 1933); assay type: functional; conditions: Homo sapiens
[16] = tested on: BJ; assay: cells; assay type: functional, cell-based; conditions: Homo sapiens

Chain of Luciferin 4-monooxygenase (P08659 whole entry): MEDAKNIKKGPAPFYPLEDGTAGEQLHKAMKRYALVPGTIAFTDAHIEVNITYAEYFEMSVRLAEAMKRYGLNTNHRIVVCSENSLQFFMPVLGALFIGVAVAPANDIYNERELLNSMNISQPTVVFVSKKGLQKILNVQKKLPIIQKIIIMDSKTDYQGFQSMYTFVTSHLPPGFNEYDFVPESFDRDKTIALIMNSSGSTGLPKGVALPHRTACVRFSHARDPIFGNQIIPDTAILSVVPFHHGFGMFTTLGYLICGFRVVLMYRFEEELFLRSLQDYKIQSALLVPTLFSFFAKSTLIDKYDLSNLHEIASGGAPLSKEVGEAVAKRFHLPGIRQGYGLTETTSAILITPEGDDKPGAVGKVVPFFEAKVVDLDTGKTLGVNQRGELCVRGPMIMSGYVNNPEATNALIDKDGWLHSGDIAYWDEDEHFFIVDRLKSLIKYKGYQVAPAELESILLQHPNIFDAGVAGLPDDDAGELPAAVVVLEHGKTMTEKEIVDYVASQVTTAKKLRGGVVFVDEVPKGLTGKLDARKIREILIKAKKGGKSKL

For `CC(=O)N(C)c1ccc(NC(=O)Nc2ccc(C)cc2)cc1`, the IC50 [1] was 0.673 µM (not active).

In the case of `O=C(c1cc(-c2ccccc2)[nH]n1)N1CCc2c([nH]c3ccccc23)C1c1ccccn1` (configuration not stated), the EC50 [2] is reported as 10.3 µM (active), the EC50 [3] is reported as > 160 µM (inactive) and the EC50 [4] is reported as 0.718 µM (active). The EC50 [5] was 20.4 µM (active).

For `CCCCNC(=O)c1ccc(N2CCC3(CC2)OCCO3)c([N+](=O)[O-])c1`, the EC50 [6] was > 112 µM (not active) and the EC50 [7] was > 112 µM (not active).

For `Cc1ccc(-c2n[nH]c(Cc3ccccc3)n2)cc1`, the EC50 [8] was 0.105 µM (active), the EC50 [9] was 2.44 µM (active) and the EC50 [10] was 60.8 µM (active).

For `O=C1/C(=C/Nc2cccc(O)c2)c2ccccc2C(=O)N1c1ccc2c(c1)OCO2`, the EC50 [8] was > 120 µM (not active), the EC50 [9] was > 120 µM (not active) and the EC50 [10] was > 120 µM (not active).

For `COc1cc(NC(=O)c2ccccc2NS(=O)(=O)c2ccc(Cl)s2)cc(OC)c1`, the AC50 [11] was 5.95 µM (active), the EC50 [3] was 14.5 µM (active) and the EC50 [4] was 4.13 µM (active).

For `Cc1c(OC(C)C(=O)NCc2ccccn2)ccc2c3c(c(=O)oc12)CCCC3` (configuration not stated), the EC50 [6] was > 112 µM (not active) and the EC50 [7] was > 112 µM (not active).

For `COc1cccc(N/C=C/C(=O)c2ccc(OC)c(OC)c2)c1`, the EC50 [6] was 14.2 µM (active) and the EC50 [7] was 22.8 µM (active).

For `Cc1cc(Nc2cccc(Cl)c2Cl)n2ncnc2n1`, the EC50 [3] was > 150 µM (inactive) and the EC50 [4] was 0.769 µM (active).

In the case of `O=[N+]([O-])/C=C/c1c(OCc2ccccc2)ccc2ccccc12`, the EC50 [12] is reported as 3.7 µM (active), the EC50 [2] is reported as 1.49 µM (active) and the EC50 [5] is reported as 4.18 µM (active). The EC50 [13] was 1.2 µM (active), the EC50 [14] was 3.63 µM (inconclusive) and the EC50 [15] was 2.3 µM (inconclusive). For the same compound, the EC50 [16] was 90.6 µM (inconclusive).

For `COC(=O)c1sc(NC(=O)c2ccoc2C)nc1C`, the EC50 [6] was 2.44 µM (active) and the EC50 [7] was 5.71 µM (active).

In the case of `OCCCNc1nc(-c2ccc(Cl)cc2)nnc1-c1ccc(Br)cc1`, the IC50 [1] is reported as 3.09 µM (not active).
